What was measured:
[1] = tested on: LNCaP tumor xenograft-bearing CB17-SCID mouse; type: in vivo; details: 1 h p.i.
Description: Detailed information on organ preparation and extraction procedures is provided in the supporting information. In brief, [^177Lu]Lu-11 (9.64 MBq) was injected into the tail vein of a LNCaP tumor xenograft-bearing CB17-SCID mouse. The animal was sacrificed 1 h p.i. and subjected to the standard procedure for biodistribution studies. In addition, urine was taken from all mice that were investigated in this experiment (8.4–9.0 MBq injected activity) and pooled (n = 5). Liver, tumor and kidneys were homogenized with a MM-400 ball mill (Retsch GmbH, Haan, Germany) at 30 Hz for 20 min and extracted with 1 mL radioimmunoprecipitation assay (RIPA) buffer containing 2 μmol of 2-(phosphonomethyl)pentane-1,5-dioic acid (2-PMPA). The suspension was centrifuged (15,200 rpm, 10 min, 21 °C) and the supernatants were loaded onto a preconditioned Strata-X cartridge (200 mg). Elution of the activity was conducted by 750 μL of MeCN/H2O (6/4, 0.1% TFA) and the extracts were analyzed via radio-RP-HPLC. Prior to solid phase extraction, blood samples were centrifuged twice (13,000 rpm, 5 min) to separate the plasma from the blood cells. Urine samples were also centrifuged (13,000 rpm, 5 min) and the supernatant was directly analyzed via radio-RP-HPLC.
Besides biodistribution and μSPECT/CT studies, [^177Lu]Lu-11 (tetrazole) was analyzed according to its metabolic stability 1 h p.i. Relevant dissected organs (tumor, kidney, liver) and body fluids (blood and urine) were collected, homogenized if necessary and subjected to extraction of the incorporated activity. […] The respective radio-RP-HPLC analyses of extracts from homogenized organs and body fluids are depicted in Figure 1 in the supporting information.
[^177Lu]Lu-11 (9.64 MBq) was injected into the tail vein of a LNCaP tumor xenograft-bearing CB17-SCID mouse. The animal was sacrificed 1 h p.i. and subjected to the standard procedure for biodistribution studies. In addition, urine was taken from all mice that were investigated in this experiment (8.4 - 9.0 MBq) and pooled (n = 5). Relevant dissected organs (tumor, kidneys, liver) and body fluids (blood and urine) were collected, homogenized if necessary and subjected to mechanochemical as well as solid phase extraction (SPE).
Four 2 mL LoBind tubes were equipped with steel and ceramic beads from Lysis Tubes W (analytikjena, Jena, Germany) for kidneys, tumor and liver (bisected). 1 mL radioimmunoprecipitation assay (RIPA) buffer containing 2.0 µmol of 2-PMPA was added to each tube and the organs were homogenized with a MM-400 ball mill (Retsch GmbH, Haan, Germany) at 30 Hz for 20 min. Afterwards, the homogenates were transferred to LoBind tubes free from steel and ceramic beads and centrifuged (15,200 rpm, 10 min, 21 °C). The first supernatants were stored, and the precipitates were again subjected to mechanochemical extraction with 1 mL RIPA buffer (2.0 µmol PMPA) at 30 Hz for 20 min. After centrifugation (15,200 rpm, 10 min, 21 °C), also the second supernatants were kept for SPE.
After cardiac puncture, 1 mL Tracepur®-H2O was directly added to the collected blood sample and centrifuged twice (13,000 rpm, 5 min) to separate the plasma from the blood cells. The precipitate was dissolved in 500 µL Tracepur®-H2O and together with the first supernatant again centrifuged (13,000 rpm, 5 min). Both supernatants were kept for SPE.
Pooled urine samples were centrifuged (13,000 rpm, 5 min) and the supernatant was directly analyzed via radio-RP-HPLC.

LNCaP cells = assay: Internalization study of 177Lu-labeled ligands in LNCaP cells, normalized to ([125I]I-BA)KuE; type: cell-based, human; details: 1 h, 37 °C, 1.0 nM 177Lu-compound, normalized to ([125I]I-BA)KuE
Description: PSMA-positive LNCaP cells (300265; Cell Lines Service, Eppelheim, Germany) were cultivated in Dulbecco’s modified Eagle medium/Nutrition Mixture F-12 with GlutaMAX (1/1, DMEM-F12, Thermo Fisher Scientific, Darmstadt, Germany) supplemented with 10% fetal bovine serum (Merck KGaA, Darmstadt, Germany) and kept at 37 °C in a humidified 5% CO2 atmosphere. One day (24 ± 2 h) prior to all in vitro experiments, the cultivated LNCaP cells were harvested using a mixture of trypsin/ethylenediamine-tetraacetic acid (0.05%/0.02%) in PBS (Thermo Fisher Scientific, Darmstadt, Germany) and centrifuged at 1300 rpm (ca. 190×g) for 3 min at room temperature (Heraeus Megafuge 16, Thermo Fisher Scientific, Darmstadt, Germany). After centrifugation, the supernatant was disposed and the cell pellet was resuspended in culture medium. Cells were counted with a Neubauer hemocytometer (Paul Marienfeld GmbH & Co. KG, Lauda-Königshofen, Germany) and seeded in 24-well plates.
Detailed information on affinity and internalization experiments is provided in the supporting information. […] IC50 values of (^natI-BA)KuE were determined on the same day for monitoring assay performance and to identify abnormal deviations in uptake and/or affinity. […] Data were corrected for non-specific binding and normalized to the specific internalization observed for the radioiodinated reference compound (n = 3).
The culture medium was removed and the cells were washed with 500 µL of DMEM-F12 containing 5% BSA. Afterwards, 200 µL of DMEM-F12 (5% BSA) were added to each well and left to equilibrate at 37 °C for 15 min. 25 µL of DMEM-F12 (5% BSA) were added to each well, followed by the addition of 25 µL of the respective ^177Lu-labeled ligand (10.0 nM in DMEM-F12 (5% BSA)). For blocking PSMA-specific binding and uptake, 25 µL of 2-(phosphonomethyl)pentane-1,5-dioic acid (2-PMPA) (100 µM in DMEM (5% BSA)) instead of DMEM-F12 (5% BSA) were added prior to radiotracer addition. […] Each experiment (control and blockade) was performed in triplicate. […] Incubation was terminated by placing the plate on ice (4 °C, 1 min) and removal of the incubation medium. The cells were washed with 250 µL of ice-cold PBS and the wash medium was combined with the respective supernatant. This fraction represents the amount of free radioligand. 250 µL of ice-cold 2-PMPA (10 µM in PBS) were added and the cells were incubated for 10 min at 4 °C. Afterwards, the cells were rinsed again with 250 µL of ice-cold PBS and the wash medium was combined with the respective supernatant. This fraction represents the amount of cell surface-bound ligand. In the last step, the cells were lysed by addition of 250 µL of 1 M aqueous NaOH. After 20 min, the lysate of each well was transferred to the respective vial as well as 250 µL of 1 M NaOH used for rinsing the well. This fraction represents the amount of internalized radioligand. Quantification of the amount of free, cell surface-bound and internalized activity was performed in a γ-counter.

CC(C)(C)[Si](F)(c1ccc(C(=O)NC[C@@H](NC(=O)CN2CCN(CC(=O)[O-])CCN(CC(=O)[O-])CCN(CC(=O)[O-])CC2)C(=O)N[C@H](CCCCNC(=O)CCC(=O)NCCC[C@@H](NC(=O)CC[C@H](NC(=O)N[C@@H](CCc2nnn[nH]2)C(=O)O)C(=O)O)C(=O)O)C(=O)O)cc1)C(C)(C)C.[Lu+3] [^natLu/[^177Lu]Lu-11]
metabolite with higher hydrophilicity found in the urine ([1]; pooled urine (n = 5)): 18.7%
metabolite with higher hydrophilicity detected in blood ([1]; radio-RP-HPLC of extract): 8.5%
metabolite with higher hydrophilicity detected in kidney ([1]; radio-RP-HPLC of extract): 11.7%
metabolite with higher hydrophilicity detected in tumor ([1]; radio-RP-HPLC of extract): 7.1%
metabolite with higher hydrophilicity in the liver homogenate ([1]; radio-RP-HPLC of extract): not detectable
more lipophilic metabolite (tR = 20.5 min) in the liver homogenate ([1]; radio-RP-HPLC of extract): 28.0%
%Internalization compared to the reference (LNCaP cells): 1 h: 9.9 ± 3.2%
%Internalization compared to the reference (LNCaP cells; listed as [^177Lu]Lu-11): 9.9 ± 3.2%

From article PMC7910394, “Design of PSMA ligands with modifications at the inhibitor part: an approach to reduce the salivary gland uptake of radiolabeled PSMA inhibitors?” (EJNMMI Radiopharmacy and Chemistry, 2021)
